Test [1] addresses periplasmic domain of BT1754 (BT1754-PD; residues 29-343) (Bacteroides thetaiotaomicron, UniProt Q8A6X1). The test is described as follows: Isothermal calorimetry binding to the periplasmic domain of BT1754. An excerpt: The periplasmic domain of the hybrid two-component system BT1754 binds to monomeric fructose. One of the key unanswered questions concerning the HTCS family, and many extracellular sensory systems, is the identity of the molecular triggers for signaling events. […] (FIG. 2B). […] As PBPs are known to bind small molecules such as sugars, we expressed the periplasmic domain of BT1754 (BT1754-PD; residues 29-343) in a recombinant form and tested for binding to a range of monosaccharides and fructan-derived oligosaccharides to see if direct interaction with a specific carbohydrate is the means of signal perception in BT1754.
Isothermal titration calorimetry. Measurements were carried out essentially as described previously, except that a Microcal VP-ITC machine was used, and proteins were dialyzed into 20 mM Tris-HCl, pH8.0. The assumption that n=1 for BT1762 binding to levan was based on the structure of the starch binding SusD.

Test [2] relates to Bacteroides thetaiotaomicron (Bt). The test is described as follows: Growth of Bt in minimal medium with a fructose-based carbohydrate as only carbon source. It counts as cell-based. The settings on record: substance as only carbon and energy source; for doubling time: Bt. The text has this: Bt upregulates its putative fructan PUL when grown on fructose-containing carbohydrates We inoculated minimal medium containing specific fructose-based carbohydrates as the only carbon and energy source with Bt to test if the bacterium is competent to grow on fructans. Bt grew on a broad range of fructose-based glycans, including free fructose, sucrose, levan (high MW fructose polymer with predominantly β2-6-linkages), and fructo-oligosaccharides (FOS; short-chain β2-1 polymers of 2-10 fructose units) (FIG. 1C). However, Bt grew poorly on inulin (β2-1 fructose polymer with an average degree of polymerization of ˜25), with growth only apparent three days after inoculation. Doubling times on simple monosaccharides and disaccharide were similar to one another.
(§1) Culturing bacteria. Bacteria were cultured in TYG and MM as described previously. The following bacteria were used: Bt (VPI-5482), B. caccae (ATCC-43185), B. ovatus (ATCC-8483), B. fragilis (NCTC-9343), B. uniformis (ATCC-8492), and B. vulgatus (ATCC-8482). Growth curves in MM were obtained using a Powerwave (Biotek) reading OD600 every 30 min from anaerobic cultures at 37° C.

Test [3] relates to Bt-ΔBT1754. The test is described as follows: Growth of isogenic mutant Bt-ΔBT1754 in minimal media. The settings on record: fructose-based minimal media. In kind it is cell-based, Bacteroides thetaiotaomicron.
Description: The hybrid two-component system BT1754 is required for efficient fructan utilization by Bt. We assessed the ability of an isogenic mutant of Bt lacking the BT1754 gene to grow in a panel of fructose-based minimal media (MM) to test if upregulation of the PUL was dependent upon the HTCS signaling sensor. An in-frame, unmarked deletion of BT1754 was constructed using a standard counter-selectable allele-exchange procedure. […] Complementation of this mutant was achieved by introducing the genomic fragment containing BT1754 and its 5′ intergenic upstream promoter region in trans.
as §1

For test [4], the system named is all six Bacteroides species. The test is described as follows: Growth of six Bacteroides species on fructose-based glycans. It counts as cell-based.
Description: (§2) In all six Bacteroides species, the HTCS is adjacent to a predicted fructokinase, a putative inner membrane monosaccharide importer, and GH32-family glycoside hydrolases. In each genome, except that of B. vulgatus, the syntenic regions also contain a susC/susD homologous pair. […] All Bacteroides species tested, except B. vulgatus, were able to grow efficiently using one of the long-chain fructans, inulin or levan. The inability of B. vulgatus to grow on long-chain fructans is consistent with the absence of a susC/susD-like pair within its locus. B. caccae, B. ovatus, B. fragilis and B. uniformis can utilize inulin with efficiency similar to their use of glucose. This contrasts with Bt inulin use, which is only observed after three days (FIG. 5). Bt was the only species tested able to use levan, which was particularly striking when considering the overall similarity in PUL structure between Bt, B. caccae, and B. ovatus.
as §1

Test [5] relates to B. caccae. The test is described as follows: Growth on long-chain fructan. It counts as cell-based. The settings on record: efficiency similar to use of glucose.
Description: as §2, §1

For test [6], the system named is B. fragilis. The test is described as follows: Growth on long-chain fructan. In kind it is cell-based. Conditions: efficiency similar to use of glucose.
Description: as §2, §1

Test [7] concerns B. ovatus. The test is described as follows: Growth on long-chain fructan. In kind it is cell-based. The settings on record: efficiency similar to use of glucose.
Description: as §2, §1

Test [8] concerns B. uniformis. Kind of test: Growth on long-chain fructan. It counts as cell-based. The settings on record: efficiency similar to use of glucose.
Description: as §2, §1

Test [9] relates to B. vulgatus. Kind of test: Growth on long-chain fructan. In kind it is cell-based.
Description: as §2, with “Bt was the only species tested able to use levan, which was particularly striking when considering the overall similarity in PUL structure between Bt, B. caccae, and B. ovatus.” left out
Genomic content of Bacteroides species predicts changes in microbiota composition induced by an inulin-based diet. The differences in ability to utilize fructans between the Bacteroides species implies that the relative success of a species within a gut ecosystem may be determined, in part, by the abundance and type of fructan in the host diet. […] We constructed defined two-member communities of Bacteroides species within the intestines of gnotobiotic mice to test how model microbiotas respond in vivo to dietary inulin, which, unlike levan, is available in pure form in quantities sufficient to conduct such a study. […]

Test [10] relates to Bt and B. caccae. The test is described as follows: Dietary inulin in gnotobiotic mice bi-associated with Bt and B. caccae, relative fecal proportion by qPCR. In kind it is in vivo, germ-free Swiss-Webster mice. An excerpt:
(§3) Two groups of 8-12-week old, germ-free mice were colonized with equivalent quantities (10^8 colony forming units, CFU) of Bt and B. caccae or Bt and B. vulgatus. Each mouse was maintained on a standard polysaccharide-rich diet for the first 7 days of colonization and then switched to a diet in which the sole polysaccharide was inulin (10% w/w) for an additional 14 days. Mice were individually housed throughout the experiment to ensure no cross inoculation could occur and bedding was changed every two days. Total bacterial colonization density was determined by assessing the CFUs in feces over 21 days. The change in each species' relative abundance before and after dietary inulin supplementation was assessed using species-specific primers in a quantitative PCR assay.
In the previous experiment, inulin was the sole polysaccharide in the diet. We wondered whether we would observe the same inulin-induced increase in B. caccae relative to Bt if other polysaccharides were also present in the diet. To test this, gnotobiotic mice were co-colonized with Bt and B. caccae and maintained on the standard diet with inulin supplementation in the water (1% w/v). Over the 14 days the mice ingested an average of 117±6 mg of inulin daily via the water (compared to 355±7 mg/day with the inulin diet). Fecal samples were tested by qPCR over the course of the 21-day experiment for relative levels of Bt or B. caccae.
We decided to feed mice a custom diet deficient in all polysaccharides and supplement inulin in the water to determine whether a lower dose of inulin in the absence of other polysaccharides was sufficient to provide B. caccae a competitive advantage over Bt in vivo. Under this experimental paradigm the mice consumed an average of 97 mg of inulin per day. After. 14 days on inulin-water supplementation, the proportion of B. caccae increased by 26±8% (FIG. 6D). […] The wide range of polysaccharides present in the standard diet allows Bt to compete effectively with B. caccae even in the presence of inulin.
(§4) Bacterial colonization and density determination of germ-free mice. Germ-free Swiss-Webster mice were maintained in gnotobiotic isolators and fed an autoclaved standard diet (Purina LabDiet 5K67) or custom diet (Bio-Serv, http://bio-serv.com/), in accordance with A-PLAC, the Stanford IACUC. Mice were bi-associated using oral gavage (10^8 CFU of each bacterial species). Relative densities of bacteria were determined by qPCR using strain-specific primers.
Background: Quantitative PCR measures a nucleic acid by following its amplification.

Test [11] concerns Bt and B. vulgatus. The test is described as follows: Dietary inulin in gnotobiotic mice bi-associated with Bt and B. vulgatus, relative fecal proportion by qPCR. In kind it is in vivo, germ-free Swiss-Webster mice.
Description: as §3, §4

Setting [12] is: after two weeks on inulin diet (day 21), n=7 mice.

periplasmic domain of BT1754 (BT1754-PD; residues 29-343), sequence (Q8A6X1 entry or part of it, change not shown): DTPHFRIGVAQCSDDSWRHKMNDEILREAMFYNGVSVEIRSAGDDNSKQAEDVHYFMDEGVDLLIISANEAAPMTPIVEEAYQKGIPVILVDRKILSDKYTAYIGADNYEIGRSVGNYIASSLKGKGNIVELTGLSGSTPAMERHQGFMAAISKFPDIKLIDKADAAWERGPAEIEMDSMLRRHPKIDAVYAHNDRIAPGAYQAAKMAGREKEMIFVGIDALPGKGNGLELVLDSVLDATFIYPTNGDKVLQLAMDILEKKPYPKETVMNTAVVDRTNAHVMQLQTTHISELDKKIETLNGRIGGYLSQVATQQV

`O=C(CO)[C@@H](O)[C@H](O)[C@H](O)CO` [fructose]: in test [1], the Kd was about 2000 nM. For the same compound, the “growth of Bt” value in [2] was “grew on”. The “growth of Bt-ΔBT1754” value in test [3] was “retarded growth”. The growth entry in [4] is recorded as “competent for growth”.

Regarding `O=C[C@H](O)[C@H](O)[C@H](O)CO` [ribose], in [1] (isothermal calorimetry), the “interaction with BT1754-PD” value is on record as “does not interact”.

Consider `OC[C@H]1O[C@@](CO)(O[C@H]2O[C@H](CO)[C@@H](O)[C@H](O)[C@H]2O)[C@@H](O)[C@@H]1O` [sucrose], for which, in test [2], the “growth of Bt” value is “grew on”. Also, in [3], the “growth of Bt-ΔBT1754” value is “retarded growth”. Further, the growth entry in test [4] is reported as “competent for growth”.

As for fructo-oligosaccharides [FOS], in [2], the doubling time was 5.6 h and the “growth of Bt” value is “grew on”. Also, in test [3], the “growth of Bt-ΔBT1754” value is listed as “failed to grow”. The growth result in test [4] was “competent for growth”.

Compound inulin registered a doubling time in [2] of 96.4 h. Also, in test [2], the “growth of Bt” value was “grew poorly”. Also, the “growth of Bt-ΔBT1754” value in [3] was “failed to grow”. The inulin utilization result in test [5] is recorded as “can utilize”; in [6] it was “can utilize”; in test [7], “can utilize”; in [8], “can utilize”; in [9], “unable to utilize”. Besides, the “B. caccae proportion of community” value in test [10] (setting [12]) was 51±6%; in test [10] (six days after change to inulin-based diet (10% w/w)), 20±4%. The “Bt proportion of community” value is reported as “approximately 49±6%” in test [10] (setting [12]) and 80±4% in test [10] (six days after change to inulin-based diet (10% w/w, sole polysaccharide), 87±3% before switch). For the same compound, the “increase in proportion of B. caccae” value in [10] (custom diet deficient in all polysaccharides, inulin in the water, 14 days) is on record as 26±8%; in [10] (inulin-only diet experiment, day 6 to day 21), 36±7%. Also, the “change in relative colonization of Bt and B. caccae versus controls” value in test [10] (standard diet with inulin in the water (1% w/v), 14 days) is on record as “no statistical difference”. In test [11] (after 6 days on inulin-based diet), the “change in community composition” value is “did not exhibit any significant trend”. The compound further yielded a Bt abundance in [11] (day 21, inulin enriched diet, 74±3% on day 6, p=0.1, n=3 mice) of 84±5%.

Turning to levan, in test [2], the doubling time was found to be 2.7 h and the “growth of Bt” value was “grew on”. Further, the “growth of Bt-ΔBT1754” value in [3] was “failed to grow”.

A word on the Kd: it is the free concentration of one partner at which half of the binding sites on the other are occupied at equilibrium, for simple one-to-one binding. A high value points to lower affinity.

The values are drawn from patent publication US20110281762A1, “High throughput screening for anaerobic microorganisms” (priority 2010, published 2011).
